Reference: patent EP4790046A1, “NOVEL COMPOUND DERIVED FROM MYRISTICA FRAGRANS, AND ANTICANCER COMPOSITION COMPRISING SAME” (Korea Institute of Science and Technology, priority 2023, dated 2025)
Read-outs that look alike come from different tables or passages of the source.

What was measured:
AGS = experiment: alamarBlue cell viability (survival rate, IC50), AGS; type: cell-based; conditions: AGS (gastric cancer)
Text: (§1) A p-value < 0.05 was considered statistically significant.

SNU-719 = experiment: alamarBlue cell viability (survival rate, IC50), SNU-719; type: cell-based
Text: as §1

SNU-81 = experiment: alamarBlue cell viability (survival rate, IC50), SNU-81; type: cell-based
Text: as §1

SNU-C5 = experiment: alamarBlue cell viability (survival rate, IC50), SNU-C5; type: cell-based
Text: as §1

SW48 = experiment: alamarBlue cell viability (survival rate, IC50), SW48; type: cell-based; conditions: SW48 (colorectal cancer)
Text: as §1

SNU201 = experiment: alamarBlue cell viability (survival rate), SNU201; type: cell-based; conditions: SNU201 (glioblastoma), compound 10 µM, 48 hours
Text: as §1

MiaPaCa-2 = experiment: alamarBlue cell viability (survival rate), MiaPaCa-2; type: cell-based; conditions: MiaPaCa-2 (pancreatic cancer), compound 10 µM, 48 hours
Text: as §1

SW48 cell line = experiment: Cell cycle distribution (PI/RNase staining, flow cytometry), SW48; type: cell-based
Protocol: Cell cycle distribution was analyzed by DNA staining using FxCycle PI/RNase Staining Solution (Invitrogen, USA). The 23132/87 and SW48 cell lines was seeded at densities of 5 × 10^5 and 7 × 10^5cells/well, respectively, in 6-well plates. After 24 hours of culture, cells were starved overnight in serum-free medium. […] Cells were then harvested, fixed with 70% ethanol, and stained with PI/RNase solution. Samples were analyzed by flow cytometry (BD FACSVerse Cell Analyzer and FlowJo software, BD Biosciences, Franklin Lakes, NJ, USA) based on 10,000 events.
(§2) Student's t-test was performed for statistical analysis between the 2 concentrations of the same compound.

23132/87 cells [1] = experiment: Apoptosis, Annexin V-FITC/PI staining, flow cytometry, 23132/87; type: cell-based; conditions: for Apoptosis distribution (%), Q2: Annexin V-FITC+/PI+ (late apoptosis and cell death); for Apoptosis distribution (%), Q3: Annexin V-FITC+/PI- (early apoptosis); for Apoptosis distribution (%), Q4: Annexin V-FITC-/PI- (healthy population)
Protocol: (§3) 23132/87 and SW48 cells were seeded at densities of 5 × 10^5 and 7 × 10^5 cells/well in a 6-well plate and cultured for 24 hours. […] After treatment, cells were harvested and stained using the Annexin V-FITC Early Apoptosis Detection Kit (6592, Cell Signaling Technology, USA). Flow cytometry (BD FACSVerse Cell Analyzer and FlowJo software, BD Biosciences, USA) was applied to analyze the samples based on 10,000 events.
as §2

SW48 cells [2] = experiment: Apoptosis, Annexin V-FITC/PI staining, flow cytometry, SW48; type: cell-based; conditions: for Apoptosis distribution (%), Q1 / Apoptosis distribution (%), Q2 / Apoptosis distribution (%), Q3 / Apoptosis distribution (%), Q4: 20 hours; for Apoptosis distribution (%), Q2: Annexin V-FITC+/PI+ (late apoptosis and cell death); for Apoptosis distribution (%), Q3: Annexin V-FITC+/PI- (early apoptosis); for Apoptosis distribution (%), Q4: Annexin V-FITC-/PI- (healthy population)
Protocol: as §3, §2

caspase-3 and -7 [3] = experiment: Caspase-3/7 activity assay (Caspase-Glo 3/7), 23132/87 cells; type: cell-based; conditions: for Caspase-3/7 activity: RLU relative to DMSO; for caspase-3/7 RLU increase over DMSO: 23132/87
Protocol: (§4) Apoptosis can be activated and progress through either the intrinsic or extrinsic pathway, but caspase-3, the executioner caspase, is involved in most cases. […] Since this enzyme activity is transient, analysis was performed at two time points: 6 hours and 12 hours post-treatment.
(§5) Specifically, the Caspase-3/7 activity assay was performed with slight modifications to the manufacturer's protocol (Promega, USA). Briefly, cells were seeded at a density of 5 × 10^3 cells/well in a 96-well plate, cultured for 24 hours, and then treated with the compound at an appropriate concentration for 6 or 12 hours. After treatment, Caspase-Glo 3/7 reagent was added in equal volumes to the treated samples. The plate was then shaken and incubated at room temperature for 2 hours. Enzyme activity was determined by measuring relative light units (RLU) using a Varioskan LUX Multimode Microplate Reader (Thermo Fisher Scientific, USA).

caspase-3 and -7 [4] = experiment: Caspase-3/7 activity assay (Caspase-Glo 3/7), SW48 cells; type: cell-based; conditions: for Caspase-3/7 activity: RLU relative to DMSO; for caspase-3/7 signal higher than DMSO: SW48
Protocol: as §4, §5

23132/87 cells [5] = experiment: Xenograft mouse model, tumor volume, 23132/87 (gastric cancer); type: in vivo, BALB/c/nu/nu mice; conditions: 10 mg/kg intraperitoneal on alternate days, to day 27
Protocol: (§6) Tumor volume and body weight were measured twice weekly.

SW48 cells [6] = experiment: Xenograft mouse model, tumor volume, SW48 (colorectal cancer); type: in vivo, BALB/c/nu/nu mice; conditions: 10 mg/kg intraperitoneal on alternate days, to day 27
Protocol: as §6

[7] = mouse, in vivo, ip, 10 mg/kg
Protocol: Female BALB/c/nu/nu mice (5 weeks old) were used in the in vivo model.
As shown in the schematic diagram of Figure 16a, 23132/87 and SW48 cells were injected subcutaneously into mice at densities of 5 × 10^6 cells/mouse and 3 × 10^6 cells/mouse, respectively. […] Tumor volume and body weight were measured twice weekly. On day 27, mice were sacrificed, and major organs (liver, spleen, kidney) and tumor tissue were collected and stored for further analysis. Tumor volume was calculated using the following formula: Volume (mm^3) = (Length) × (Width)^2 × 1/2.

[8] = system: various cancer cell lines; experiment: alamarBlue cell viability, statements across the cell line panel
Protocol: AGS, SW48, HepG2, and MiaPaCa-2 was purchased from ATCC (American Type Culture Collection, USA), SNU cell lines from the Korean Cell Line Bank (KCLB, Korea), and 23132/87 from the Leibniz Institute DSMZ - German Collection of Microorganisms and Cell Cultures GmbH (DSMZ, Germany). All cell lines were cultured in RPMI-1640 medium (HyClone, USA) supplemented with 10% FBS (Gibco, USA) and 1% penicillin-streptomycin (HyClone, USA) under conditions of 5% CO2, 37°C.
Cells were seeded at a density of 5 × 10^3cells/well in a 96-well plate for 24 hours, then treated with the compound at an appropriate concentration (10 µM) for 48 hours. After treatment, alamarBlue reagent was added at a volume ratio of 1/10 of the treatment volume and incubated for 4 hours in a 37°C cell incubator (protected from direct light). Cell viability was then determined by measuring absorbance values at 570 nm and 600 nm using a microplate reader. The anticancer effects of candidate compounds were evaluated by assessing the cell viability (%) of cells treated at specific concentrations and the half-maximal inhibitory concentration (IC50) of each natural product. Doxorubicin and oxaliplatin were used as positive controls for gastric and colorectal cancer, respectively.
Statistical analysis was performed using R software (version 4.2.2) (R Core Team). Differences between groups were assessed using student's t-test or 1-way ANOVA followed by post-hoc Tukey HSD test. A p-value < 0.05 was considered statistically significant.
Further, to measure the IC50 values against six cancer cell lines.

anticancer activity (comparison of IC50 values among compounds) ([8]; six cancer cell lines, 2.5-40 µM): strongest anticancer activity
Structure (SMILES): C=CCc1cc(OC)c(O[C@H](C)[C@H](c2ccc(O)c(OC)c2)c2ccc(O)c(C(=O)CCCCCCCCc3ccc(O)cc3)c2O)c(OC)c1 [Compound 3, Myricone C]
Cancer cell line survival rate (%) (AGS; compound 10 µM, 48 hours): 0.16% | IC50 (AGS; Homo sapiens, 2.5-40 µM, positive control = doxorubicin): 3.62 µM | IC50 (SNU-719; SNU719 (gastric cancer), 2.5-40 µM, positive control = doxorubicin): 2.93 µM | Cancer cell line survival rate (%) (SNU-719; SNU-719 (gastric cancer), compound 10 µM, 48 hours): 4.30% | IC50 (SNU-81; SNU81 (colorectal cancer), 2.5-40 µM, positive control = oxaliplatin, read-out: IC50): 9.84 µM | IC50 (SNU-81; SNU81 cells, compound 2.5-40 µM, read-out: IC50 values): 9.84 µM | Cancer cell line survival rate (%) (SNU-81; SNU-81 (colorectal cancer), compound 10 µM, 48 hours): 47.08% | Cancer cell line survival rate (%) (SNU-C5; SNU-C5 (colorectal cancer), compound 10 µM, 48 hours): 2.11% | IC50 (SNU-C5; SNUC5 (colorectal cancer), 2.5-40 µM, positive control = oxaliplatin, read-out: IC50): 2.54 µM | IC50 (SNU-C5; SNUC5 cells, compound 2.5-40 µM, read-out: IC50 values): 2.54 µM | IC50 (SW48; Homo sapiens, 2.5-40 µM, positive control = oxaliplatin): 2.55 µM | Cancer cell line survival rate (%) (SW48; compound 10 µM, 48 hours): 0.01% | Cancer cell line survival rate (%) (SNU201): 1.17% | Cancer cell line survival rate (%) (MiaPaCa-2): 2.53% | Cell cycle distribution, G1 (SW48 cell line; SW48, 5 µM, 48 hours): 56.63% | Cell cycle distribution, G2/M (SW48 cell line; SW48, 5 µM, 48 hours): 8.91% | Cell cycle distribution, S (SW48 cell line; SW48, 5 µM, 48 hours): 23.00% | Cell cycle distribution, Sub G1 (SW48 cell line; SW48, 5 µM, 48 hours): 9.65% | Cell cycle distribution, G1 (SW48 cell line; SW48, 10 µM, 48 hours): 50.93% | Cell cycle distribution, G2/M (SW48 cell line; SW48, 10 µM, 48 hours): 6.13% | Cell cycle distribution, S (SW48 cell line; SW48, 10 µM, 48 hours): 19.30% | Cell cycle distribution, Sub G1 (SW48 cell line; SW48, 10 µM, 48 hours): 24.17% | sub-G1 proportion increase compared to the DMSO control (SW48 cell line; SW48, 10 µM, 48 hours): 7% | G2 phase (SW48 cell line; SW48, 5 µM): 8.91% ± 0.24% | sub-G1 phase ratio (SW48 cell line; SW48, 5 µM): 9.65% ± 1.02% | G2 phase (SW48 cell line; SW48, 10 µM): 6.13% ± 0.47% | sub-G1 phase ratio (SW48 cell line; SW48, 10 µM): 24.17% ± 0.98% | proportions of the G1, S, and G2/M phases (SW48 cell line; SW48, 10 µM, 48 hours, only G2/M decrease statistically significant): slightly reduced | Apoptosis distribution (%), Q2 (23132/87 cells [1]; 23132/87, 5 µM, 20 hours): 9.35% | Apoptosis distribution (%), Q3 (23132/87 cells [1]; 23132/87, 5 µM, 20 hours): 5.76% | Apoptosis distribution (%), Q4 (23132/87 cells [1]; 23132/87, 5 µM, 20 hours): 81.57% | Apoptosis distribution (%), Q2 (23132/87 cells [1]; 23132/87, 10 µM, 20 hours): 10.47% | Apoptosis distribution (%), Q3 (23132/87 cells [1]; 23132/87, 10 µM, 20 hours): 10.97% | Apoptosis distribution (%), Q4 (23132/87 cells [1]; 23132/87, 10 µM, 20 hours): 75.00% | Q3 population (23132/87 cells [1]; 23132/87, 5 µM): 5.76% ± 0.35% | Apoptosis distribution (%), Q1 (23132/87 cells [1]; 23132/87, 5 µM, 20 hours): 3.30% | Q3 ratio compared with DMSO control (23132/87 cells [1]; 23132/87, 5 µM, 20 hours): significantly increased | Q3 population (23132/87 cells [1]; 23132/87, 10 µM): 10.97% ± 0.12% | Q4 distribution reduction compared to the control group (23132/87 cells [1]; 23132/87, 10 µM): 8.27% | Apoptosis distribution (%), Q1 (23132/87 cells [1]; 23132/87, 10 µM, 20 hours): 3.59% | Q2 ratio increase compared with DMSO control (23132/87 cells [1]; 23132/87, 10 µM, 20 hours): about 2% | Q3 ratio increase compared with DMSO control (23132/87 cells [1]; 23132/87, 10 µM, 20 hours): ~6% | Q2 and Q3 with increasing concentrations (23132/87 cells [1]; 23132/87, 5 to 10 µM): significantly increased | Apoptosis distribution (%), Q1 (SW48 cells [2]; SW48, 5 µM): 7.41% | Apoptosis distribution (%), Q2 (SW48 cells [2]; SW48, 5 µM): 13.80% | Apoptosis distribution (%), Q3 (SW48 cells [2]; SW48, 5 µM): 13.73% | Apoptosis distribution (%), Q4 (SW48 cells [2]; SW48, 5 µM): 65.10% | Apoptosis distribution (%), Q1 (SW48 cells [2]; SW48, 10 µM): 4.97% | Apoptosis distribution (%), Q2 (SW48 cells [2]; SW48, 10 µM): 22.43% | Apoptosis distribution (%), Q3 (SW48 cells [2]; SW48, 10 µM): 18.77% | Apoptosis distribution (%), Q4 (SW48 cells [2]; SW48, 10 µM): 53.87% | Q2 ratio (SW48 cells [2]; SW48, 5 µM): 13.80% ± 0.65% | Q3 ratio (SW48 cells [2]; SW48, 5 µM): 13.73% ± 0.92% | increase in the Q2 population, dose-based comparison (SW48 cells [2]; SW48, 5 µM to 10 µM): over 8% | Q2 (Annexin V-FITC+/PI+) (SW48 cells [2]; SW48, 10 µM): 22.43% ± 0.30% | Q2 increase compared to the control (SW48 cells [2]; SW48, 10 µM): over 8% | Q3 ratio (SW48 cells [2]; SW48, 10 µM): 18.77% ± 1.07% | Q4 distribution reduction compared to the control group (SW48 cells [2]; SW48, 10 µM): 9.43% | apoptotic and dead cell population (Q2 and Q3) increase over DMSO (SW48 cells [2]; SW48, 10 µM): ~10% | Q4 ratio reduction on changing the concentration (SW48 cells [2]; SW48, from 5 µM to 10 µM): approximately 11.23% | Caspase-3/7 activity (caspase-3 and -7 [3]; 23132/87, 5 µM, 6 h): 0.58 fold | Caspase-3/7 activity (caspase-3 and -7 [3]; 23132/87, 5 µM, 12 h): 1.74 fold | Caspase-3/7 activity (caspase-3 and -7 [3]; 23132/87, 10 µM, 6 h): 1.81 fold | Caspase-3/7 activity (caspase-3 and -7 [3]; 23132/87, 10 µM, 12 h): 1.20 fold | caspase-3/7 RLU increase over DMSO (caspase-3 and -7 [3]; 5 µM, 12 hours): 1.74 fold | caspase-3/7 RLU increase over DMSO (caspase-3 and -7 [3]; 10 µM, 6 hours): 1.81 fold | Caspase-3/7 activity (caspase-3 and -7 [4]; SW48, 5 µM, 6 h): 1.10 fold | Caspase-3/7 activity (caspase-3 and -7 [4]; SW48, 5 µM, 12 h): 2.37 fold | Caspase-3/7 activity (caspase-3 and -7 [4]; SW48, 10 µM, 6 h): 1.89 fold | Caspase-3/7 activity (caspase-3 and -7 [4]; SW48, 10 µM, 12 h): 2.02 fold | caspase-3/7 signal higher than DMSO (caspase-3 and -7 [4]; high concentration (10 µM), 6 hours): 2.37 fold | caspase-3/7 signal higher than DMSO (caspase-3 and -7 [4]; low concentration (5 µM), 12 hours): 1.89 fold | tumor volume (23132/87 cells [5]): smallest tumor volume was observed starting on day 13 | tumor growth (SW48 cells [6]): suppressed compared to the control group | body weight and the weights of major organs (liver, spleen, kidneys) [7]: remained stable | anticancer activity ([8]; various cancer cell lines): high anticancer activity
